This is an account of results in ChEMBL document CHEMBL1131670, “N-hydroxyurea and hydroxamic acid inhibitors of cyclooxygenase and 5-lipoxygenase” (Bioorg Med Chem Lett, 1999).

For orientation: IC50 means the concentration that gives 50% inhibition. High values mean weaker potency in that assay, low ones greater potency in that assay. By inhibition is commonly meant the relative decrease from the control value, in per cent.

Each structure is given as a SMILES string.

The target in experiment [1] is T1, Cyclooxygenase (Rattus norvegicus, UniProt P35355+Q63921).
T1 sequence (P35355 whole entry): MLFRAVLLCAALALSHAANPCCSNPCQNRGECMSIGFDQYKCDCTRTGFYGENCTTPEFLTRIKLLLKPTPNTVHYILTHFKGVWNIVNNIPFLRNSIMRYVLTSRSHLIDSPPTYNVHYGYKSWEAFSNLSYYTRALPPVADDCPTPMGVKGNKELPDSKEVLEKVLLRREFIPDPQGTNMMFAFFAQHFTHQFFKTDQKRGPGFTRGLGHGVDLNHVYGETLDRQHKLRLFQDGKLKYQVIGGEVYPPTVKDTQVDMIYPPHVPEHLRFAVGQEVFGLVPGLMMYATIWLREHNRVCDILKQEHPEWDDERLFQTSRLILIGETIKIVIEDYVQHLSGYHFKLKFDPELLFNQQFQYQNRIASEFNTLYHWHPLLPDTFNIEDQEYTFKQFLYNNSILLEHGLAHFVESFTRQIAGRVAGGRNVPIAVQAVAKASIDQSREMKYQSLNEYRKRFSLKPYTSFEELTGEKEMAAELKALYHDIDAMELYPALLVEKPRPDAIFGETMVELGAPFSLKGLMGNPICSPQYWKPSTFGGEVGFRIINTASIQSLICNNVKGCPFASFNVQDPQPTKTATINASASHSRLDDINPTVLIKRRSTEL
T1 sequence (Q63921 whole entry): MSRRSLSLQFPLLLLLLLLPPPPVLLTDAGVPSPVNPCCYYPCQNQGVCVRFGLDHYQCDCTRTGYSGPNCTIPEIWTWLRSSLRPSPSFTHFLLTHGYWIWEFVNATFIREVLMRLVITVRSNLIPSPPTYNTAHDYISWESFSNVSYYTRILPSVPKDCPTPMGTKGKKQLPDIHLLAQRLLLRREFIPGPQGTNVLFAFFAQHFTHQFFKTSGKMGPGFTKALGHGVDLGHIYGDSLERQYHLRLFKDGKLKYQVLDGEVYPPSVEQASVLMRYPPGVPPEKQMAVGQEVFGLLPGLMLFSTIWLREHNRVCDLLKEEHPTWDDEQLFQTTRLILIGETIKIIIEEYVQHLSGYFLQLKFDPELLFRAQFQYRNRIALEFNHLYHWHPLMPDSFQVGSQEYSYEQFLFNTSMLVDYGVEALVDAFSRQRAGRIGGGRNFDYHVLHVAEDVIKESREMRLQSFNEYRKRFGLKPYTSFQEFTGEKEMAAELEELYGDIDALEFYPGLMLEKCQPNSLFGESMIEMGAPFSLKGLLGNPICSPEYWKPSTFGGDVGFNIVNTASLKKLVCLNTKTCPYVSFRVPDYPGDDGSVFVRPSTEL
Kind of experiment: Inhibitory activity against cyclooxygenase (COX) in intact rat […] leukemia cells (RBL-1). In kind it is cell-based.

For experiment [2], the target named is T1, Cyclooxygenase. Kind of experiment: Inhibitory activity against Cyclooxygenase (COX) using broken rat […] leukemia cells (RBL-1). In kind it is cell-based.
In experiment [3] the target is T2, Polyunsaturated fatty acid 5-lipoxygenase (Rattus norvegicus) (UniProt P12527).
T2 sequence (whole entry): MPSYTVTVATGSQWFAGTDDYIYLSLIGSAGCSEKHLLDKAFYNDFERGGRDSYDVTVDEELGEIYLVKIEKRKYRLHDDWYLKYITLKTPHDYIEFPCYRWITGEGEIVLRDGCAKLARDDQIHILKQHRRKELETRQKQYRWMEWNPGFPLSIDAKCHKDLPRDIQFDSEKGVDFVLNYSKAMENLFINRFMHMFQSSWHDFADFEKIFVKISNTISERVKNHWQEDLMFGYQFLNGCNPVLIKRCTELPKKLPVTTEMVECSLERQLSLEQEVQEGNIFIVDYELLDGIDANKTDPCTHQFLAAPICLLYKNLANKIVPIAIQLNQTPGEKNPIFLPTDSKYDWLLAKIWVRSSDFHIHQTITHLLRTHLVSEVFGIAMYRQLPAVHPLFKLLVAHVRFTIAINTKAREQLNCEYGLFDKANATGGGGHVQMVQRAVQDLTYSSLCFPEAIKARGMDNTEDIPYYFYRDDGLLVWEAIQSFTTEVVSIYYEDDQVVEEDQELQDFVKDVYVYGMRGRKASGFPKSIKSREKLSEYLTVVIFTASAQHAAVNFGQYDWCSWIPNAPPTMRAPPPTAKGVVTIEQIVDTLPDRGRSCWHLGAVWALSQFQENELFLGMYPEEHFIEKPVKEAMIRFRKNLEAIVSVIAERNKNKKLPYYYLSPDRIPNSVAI
Description: Inhibitory activity against 5-lipoxygenase (5-LO) using broken rat […] leukemia cells (RBL-1)at 10 uM. In kind it is cell-based.

Experiment [4] has as its target T3, Prostaglandin G/H synthase 1 (Ovis aries) (UniProt P05979).
T3 sequence (whole entry): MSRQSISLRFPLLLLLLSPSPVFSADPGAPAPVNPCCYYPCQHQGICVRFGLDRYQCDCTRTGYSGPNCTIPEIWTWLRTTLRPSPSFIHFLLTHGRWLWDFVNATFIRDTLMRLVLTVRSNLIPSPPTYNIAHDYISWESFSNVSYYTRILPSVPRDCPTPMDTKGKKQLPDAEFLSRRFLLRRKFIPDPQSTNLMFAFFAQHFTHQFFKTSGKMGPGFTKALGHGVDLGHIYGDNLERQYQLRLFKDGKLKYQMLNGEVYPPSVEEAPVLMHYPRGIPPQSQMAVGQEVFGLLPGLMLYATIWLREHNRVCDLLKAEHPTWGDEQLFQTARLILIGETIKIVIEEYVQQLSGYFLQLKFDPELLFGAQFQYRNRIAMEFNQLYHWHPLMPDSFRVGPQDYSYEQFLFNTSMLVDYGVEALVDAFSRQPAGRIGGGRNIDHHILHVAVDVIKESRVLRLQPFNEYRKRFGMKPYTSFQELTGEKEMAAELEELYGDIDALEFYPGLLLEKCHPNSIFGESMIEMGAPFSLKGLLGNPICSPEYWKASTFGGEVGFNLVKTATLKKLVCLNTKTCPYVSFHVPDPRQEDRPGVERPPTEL
Kind of experiment: Inhibitory activity against Cyclooxygenase using sheep seminal vesicle (SSV) enzyme (COX-1) at 10 uM. It counts as tissue-based.

The target in experiment [5] is Cyclooxygenase (Rattus norvegicus) (UniProt P35355+Q63921). Description: Inhibitory activity against Cyclooxygenase (COX) using broken rat […] leukemia cells (RBL-1) at 10 uM. In kind it is cell-based.
Experiment [6] deals with T2, Polyunsaturated fatty acid 5-lipoxygenase (Rattus norvegicus). Description: Inhibitory activity against 5-lipoxygenase (5-LO) using broken rat […] leukemia cells (RBL-1) at 10 uM. In kind it is cell-based.

In the case of `CCc1ccc(-c2cc(C#CC(C)N(O)C(C)=O)nn2-c2ccc(OC)cc2)cc1` (centres undefined), the half-inhibitory concentration (IC50) came to 340 nM in experiment [1] and 60 nM in experiment [2].
As to `COC(=O)N(O)CC#Cc1cc(-c2ccc(C)cc2)n(-c2ccc(OC)cc2)n1`, the inhibition in experiment [3] turned out to be 100%; in experiment [4], 74%. The compound also displayed an IC50 in experiment [1] of 280 nM.
`CCc1ccc(-c2cc(C#CC(C)N(O)C(=O)CCl)nn2-c2ccc(OC)cc2)cc1` (centres undefined): the figures for the inhibition in experiment [3] and in experiment [5] were 100% and 86%, respectively. In experiment [1], this compound returned an IC50 of 1700 nM.
As for `CCOC(=O)C(=O)N(O)C(C)C#Cc1cc(-c2ccc(C)cc2)n(-c2ccc(OC)cc2)n1` (centres undefined), the inhibition in experiment [3] came out at 71%; in experiment [4] it was 66%. The same compound had an IC50 in experiment [1] of 3400 nM.
In the case of `COc1ccc(-n2nc(C#CC(C)N(O)C(=O)C(F)(F)F)cc2-c2ccc(C)cc2)cc1` (centres undefined), the IC50 in experiment [1] is 190 nM; in experiment [2], 50 nM.
Take `CCC(C#Cc1cc(-c2ccc(C)cc2)n(-c2ccc(OC)cc2)n1)N(O)C(C)=O` (centres undefined): the half-inhibitory concentration (IC50) in experiment [1] amounted to 220 nM; in experiment [2], 10 nM.
For `CCc1ccc(-c2cc(C#CC(C)N(O)C(=O)C(C)C)nn2-c2ccc(OC)cc2)cc1` (centres undefined), the inhibition in experiment [6] came out at 93%. In addition, the 50% inhibitory concentration (IC50) in experiment [1] worked out at 180 nM.
The compound `COc1ccc(-n2nc(C#CC(C)N(O)C(=O)c3ccccc3)cc2-c2ccc(Cl)cc2)cc1` (centres undefined) displayed an inhibition in experiment [4] of 5%. Further, the IC50 in experiment [1] worked out at 5500 nM; in experiment [2] it was 14900 nM.
Turning to `COc1ccc(-n2nc(C#CCN(O)C(N)=O)cc2-c2ccc(Cl)cc2)cc1`, the inhibition in experiment [5] worked out at 0%; in experiment [4] it was 9%.
For `COc1ccc(-n2nc(C#CC(C(C)C)N(O)C(N)=O)cc2-c2ccc(Cl)cc2)cc1` (centres undefined), the inhibition in experiment [3] was 90%; in experiment [4], 38%. The compound further came in with a 50% inhibitory concentration (IC50) in experiment [1] of 14500 nM.
On to `COc1ccc(-n2nc(C#CCN(O)C(=O)c3ccncc3)cc2-c2ccc(C)cc2)cc1`, for which the inhibition turned out to be 89% in experiment [3] and 17% in experiment [4]. The IC50 in experiment [1] came out at 5500 nM.
Regarding `CCC(=O)N(O)CC#Cc1cc(-c2ccc(C)cc2)n(-c2ccc(OC)cc2)n1`, the figures for the inhibition in experiment [3] and in experiment [4] were 100% and 79%, respectively. Besides, the 50% inhibitory concentration (IC50) in experiment [1] was 60 nM.
Regarding `COc1ccc(-n2nc(C#CC(C)N(O)C(C)=O)cc2-c2ccc(C)cc2)cc1` (centres undefined), the IC50 in experiment [1] is 110 nM; in experiment [2], 10 nM.
In experiment [4], `COc1ccc(-n2nc(C#CC(C(C)C)N(O)C(N)=O)cc2-c2ccc(C)cc2)cc1` (centres undefined) gave an inhibition of 29%. Also, the concentration for half-maximal inhibition (IC50) was found to be 1200 nM in experiment [1] and 4600 nM in experiment [2].
For `CCOC(=O)CCC(=O)N(O)C(C)C#Cc1cc(-c2ccc(C)cc2)n(-c2ccc(OC)cc2)n1` (centres undefined), the inhibition in experiment [3] was determined as 97%. For the same compound, in experiment [1], the concentration for half-maximal inhibition (IC50) turned out to be 10000 nM.
Consider `COC(=O)N(O)C(C)C#Cc1cc(-c2ccc(C)cc2)n(-c2ccc(OC)cc2)n1` (centres undefined), for which the figures for the concentration for half-maximal inhibition (IC50) in experiment [1] and in experiment [2] were 490 nM and 140 nM, respectively.
For the compound `COc1ccc(-n2nc(C#CC(C)N(O)C(N)=O)cc2-c2ccc(Cl)cc2)cc1` (centres undefined), in experiment [5], the inhibition turned out to be 0%. The compound further returned a concentration for half-maximal inhibition (IC50) in experiment [1] of 6200 nM.
For the compound `COc1ccc(-n2nc(C#CC(C)N(O)C(=O)c3ccco3)cc2-c2ccc(C)cc2)cc1` (centres undefined), the inhibition is 61% in experiment [5] and 70% in experiment [6].
As to `COc1ccc(-n2nc(C#CCN(O)C(=O)c3ccccc3)cc2-c2ccc(C)cc2)cc1`, the results for the inhibition in experiment [3] and in experiment [4] were 100% and 52%, respectively.
On to `COc1ccc(-n2nc(C#CC(C)N(O)C(=O)C(C)C)cc2-c2ccc(C)cc2)cc1` (centres undefined), for which the IC50 in experiment [1] is 90 nM; in experiment [2], 40 nM.
The compound `CCC(C#Cc1cc(-c2ccc(C)cc2)n(-c2ccc(OC)cc2)n1)N(O)C(N)=O` (centres undefined) showed an inhibition in experiment [4] of 22%. In addition, the IC50 turned out to be 2100 nM in experiment [1] and 15900 nM in experiment [2].
Consider `CCc1ccc(-c2cc(C#CC(C)N(O)C(=O)OC)nn2-c2ccc(OC)cc2)cc1` (centres undefined), for which the inhibition came to 78% in experiment [3] and 21% in experiment [4]. Also, the IC50 in experiment [1] amounted to 750 nM.
